In article PMC6328429, “Synthesis of a benzoxazinthione derivative of tanaproget and pharmacological evaluation for PET imaging of PR expression” (EJNMMI Radiopharmacy and Chemistry, 2019):
“Also recorded” adds a separate entry of the source.

Molecular target: T1, GR (Homo sapiens, UniProt P04150)
T1 construct: host or cells: CHO-K1 (Chinese hamster ovary) cells
T1 sequence (P04150 1-777): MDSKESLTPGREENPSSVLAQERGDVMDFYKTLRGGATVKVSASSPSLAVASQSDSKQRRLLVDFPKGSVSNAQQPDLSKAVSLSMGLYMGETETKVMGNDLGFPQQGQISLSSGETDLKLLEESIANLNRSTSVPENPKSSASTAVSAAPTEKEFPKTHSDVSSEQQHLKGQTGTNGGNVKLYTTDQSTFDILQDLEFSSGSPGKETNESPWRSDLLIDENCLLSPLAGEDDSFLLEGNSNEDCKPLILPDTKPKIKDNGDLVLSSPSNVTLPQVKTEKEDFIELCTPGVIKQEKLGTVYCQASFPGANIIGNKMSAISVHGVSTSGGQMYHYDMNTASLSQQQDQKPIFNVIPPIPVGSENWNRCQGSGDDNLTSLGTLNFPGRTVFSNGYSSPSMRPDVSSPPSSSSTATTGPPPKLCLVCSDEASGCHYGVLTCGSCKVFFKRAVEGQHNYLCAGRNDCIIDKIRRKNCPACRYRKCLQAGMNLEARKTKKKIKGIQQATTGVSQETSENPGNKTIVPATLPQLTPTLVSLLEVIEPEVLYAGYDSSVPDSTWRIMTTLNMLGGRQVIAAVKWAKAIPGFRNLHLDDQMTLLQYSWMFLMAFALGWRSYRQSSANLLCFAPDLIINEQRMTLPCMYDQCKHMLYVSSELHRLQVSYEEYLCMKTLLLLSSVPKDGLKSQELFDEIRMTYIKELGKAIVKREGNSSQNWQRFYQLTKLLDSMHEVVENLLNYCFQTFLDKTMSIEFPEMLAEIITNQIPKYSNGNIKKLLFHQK
Test: PatHunter express CHO-K1 GR nuclear translocation assay
Assay type: cell-based
Settings: CHO-K1 cells; 6 h; at 0.5 μM; dexamethasone positive control
Experimental: Compound 2 was analysed for GR binding using the PatHunter® express CHO-K1 GR Nuclear Translocation assay (DiscoveRx™, Fremont, CA, USA). Reagents were thawed and equilibrated to room temperature prior to use. Dexamethasone standard (10 mM, 100% DMSO) was diluted and used to prepare 12 standards by 1:4 dilution. Test compound 2 was dissolved in 100% DMSO and diluted in serial 1:3 dilutions to a final concentration of DMSO (v/v) of 0.1%. CHO-K1 (Chinese hamster ovary) cells were seeded in a 96-well plate with CP reagent and incubated for 24 h at 37 °C, 5% CO2. Cells were then incubated with the Dexamethasone standard and compound 2 for 6 h at 37 °C, 5% CO2. Following incubation, signal was detected using the PathHunter® detection reagent provided in the kit and incubated in the dark for 1 h. The plate was read using a luminescence plate reader (Additional file 1: Figure S33).

Structure (SMILES): CC1(C)OC(=S)Nc2ccc(-c3cccnc3F)cc21 [Compound 2, 6-(2-fluoropyridin-3-yl)-4,4-dimethyl-1H-benzo[d][1,3]oxazine-2(4H)-thione]
- GR nuclear translocation response: poor binder; also recorded: failed to elicit a response
